From patent publication US7541467B2, “Fluorescent zinc ion sensor” (Sekisui Medical Co., Ltd., priority 2004, dated 2009) come the findings set out here.

Structures are written as SMILES.

A short description of data set [1]: Titration with zinc ions monitored by ultraviolet and visible absorption spectra. It is filed as binding. The protocol: TQEN was titrated with zinc ions, and changes of ultraviolet and visible absorption spectra were monitored.
In the same manner as in Test Example 3, solution of 6OMeTQEN (concentration of 6OMeTQEN: 34 μM) in water-containing DMF (DMF:water=1:1) was titrated with zinc ions (0 to 68 μM), and changes in absorption were monitored by measuring ultraviolet and visible absorption spectra (FIG. 8).

Data set [2] in a line: Fluorescence on irradiation with and without added zinc ions. The format is physicochemical.
The conditions of data set [3]: NMR titration.
Data set [4] in a line: Fluorescent responses in the presence of various metal ions.

The term melting point denotes the temperature, or range, at which the solid turns liquid.

Consider `COc1ccc2nc(CN(CCN(Cc3ccc4cc(OC)ccc4n3)Cc3ccc4cc(OC)ccc4n3)Cc3ccc4cc(OC)ccc4n3)ccc2c1` [6OMeTQEN, N,N,N′,N′-tetrakis(6-methoxy-2-quinolylmethyl)-ethylenediamine], for which the melting point lay within 168 to 170 °C. In addition, the “absorption wavelength longer than that of TQEN by” value in data set [1] (34 μM in DMF:water=1:1) is “about 20 nm”. Further, in data set [1] (34 μM in DMF:water=1:1, zinc ions 0 to 68 μM), the “absorption wavelength extended to” value is reported as “around 350 nm”. Further, the “fluorescence wavelength when zinc ions were added” value in data set [2] (excitation 340 nm, DMF:water=1:1, 34 μM, zinc ions 0 to 68 μM) stood at 410 nm. In data set [2] (irradiated with light of 340 nm, DMF:water=1:1, 34 μM), the “fluorescence without zinc ions” value is given as “substantially no fluorescence was emitted”.

For `c1ccc2nc(CN(CCN(Cc3ccc4ccccc4n3)Cc3ccc4ccccc4n3)Cc3ccc4ccccc4n3)ccc2c1` [TQEN, N,N,N′,N′-tetrakis(2-quinolylmethyl)ethylenediamine], the melting point is 196 to 198 °C. In data set [2] (excitation 317 nm, DMF or DMF:water=1:1), the “fluorescence wavelength when zinc ions were added” value came out at 383 nm. In addition, the “fluorescence without zinc ions” value in data set [2] (irradiated with light of 317 nm in DMF or DMF:water=1:1) was “substantially no fluorescence was emitted”. Further, the “exchange rate between free and zinc-bound ligand” value in data set [3] is “slower than the time scale of NMR”. Moreover, in data set [4], the “fluorescence intensity in the presence of cadmium ions, relative to that in the presence of zinc ions” value is given as “about 60%”.
